A short description of data set [1]: in vitro. The settings on record: human, hela-ace2 cells.
The subject of another data set is HRV 14. Description: microbe, parasite or virus in culture. The data set is classed as cell-based, Human Rhinovirus 14 strain 1059. The settings on record: Rhinovirus B, H1-HeLa, 48 h, read-out: HRV / H1 HeLa B 14 EC50.
A short description of data set [2]: in vitro. The note with it: human, hepg2 cells.
The subject of the next data set is SARS-CoV-2. As to the kind of experiment: microbe, parasite or virus in culture. The data set is classed as cell-based, SARS-CoV-2 strain USA-WA1/2020. The settings on record: Severe acute respiratory syndrome coronavirus 2, HeLa-ACE2, 24 h, read-out: SARS-CoV-2 / HeLa-ACE2 EC50.
For a further data set, the system named is RSV A2. Description: microbe, parasite or virus in culture. It counts as cell-based. The note with it: human respiratory syncytial virus, HEp-2, 72 h, read-out: RSV A2 / Hep2 EC50.
A short description of data set [3]: in vitro. The settings on record: human, h1 hela cells.
The next data set concerns DENV-2. Description: microbe, parasite or virus in culture. The note with it: Dengue virus, DENV2, HepG2, 24 h, read-out: DENV-2 / HepG2 EC50. The data set is classed as cell-based, DENV-2 16681.
Data set [4] in a line: in vitro. The note with it: human, hep2 cells.

For orientation: CC50 means the concentration giving 50% cytotoxicity.

In turn, `CNc1nc(N)nc2c1ncn2[C@@H]1O[C@](F)(COP(=O)(N[C@@H](C)C(=O)OC(C)C)Oc2ccccc2)[C@@H](O)[C@]1(F)Cl` (single isomer, unassigned) [Example 58] yielded a CC50 at 24 h in “in vitro [1]” greater than 99 µM. In addition, the EC50 was 0.1 to 1 µM in the data set with HRV 14, greater than 10 µM in the data set with SARS-CoV-2, greater than 10 µM in the data set on RSV A2 and 0.1 to 1 µM in the data set on DENV-2. In the data set “in vitro [2]”, this molecule returned a CC50 at 72 h greater than 99 µM. The CC50 in the data set “in vitro [3]” and in “in vitro [4]” was greater than 99 µM each time.
`CNc1nc(N)nc2c1ncn2[C@@H]1O[C@](F)(COP(=O)(N[C@@H](C)C(=O)OC(C)C)Oc2ccccc2)[C@@H](O)[C@]1(F)Cl` (single isomer, unassigned) [Example 59] gave a CC50 at 24 h in “in vitro [1]” greater than 99 µM. Further, the EC50 was 1 to 10 µM in the data set with HRV 14, greater than 10 µM in the data set on SARS-CoV-2, greater than 10 µM with RSV A2 and 1 to 10 µM with DENV-2. In “in vitro [2]”, this molecule came in with a CC50 at 72 h greater than 99 µM. Besides, the CC50 in “in vitro [3]” and in the data set “in vitro [4]” was greater than 99 µM each time.
Regarding `CO[C@]1(CO)O[C@@H](c2ccc3c(N)ncnn23)[C@](C)(O)[C@@H]1O` [Example 3, (2R,3S,4R,5S)-5-(4-aminopyrrolo[2,1-f][1,2,4]triazin-7-yl)-2-(hydroxymethyl)-2-methoxy-4-methyltetrahydrofuran-3,4-diol], the half-maximal cytotoxic concentration (CC50) at 24 h in the data set “in vitro [1]” was greater than 99 µM. The EC50 with HRV 14, in the data set on SARS-CoV-2, in the data set on RSV A2 and in the data set with DENV-2 was greater than 10 µM in each case. For the same molecule, the CC50 at 72 h in “in vitro [2]” is greater than 99 µM. Besides, the CC50 in the data set “in vitro [3]” and in the data set “in vitro [4]” was greater than 99 µM in each case.
In the data set “in vitro [1]”, `[N-]=[N+]=N[C@]1(CO)C[C@@H](O)[C@H](n2ccc3c(N)ncnc32)O1` [Example 8, (2R,3R,5R)-2-(4-amino-7H-pyrrolo[2,3-d]pyrimidin-7-yl)-5-azido-5-(hydroxymethyl)tetrahydrofuran-3-ol] came in with a CC50 at 24 h greater than 99 µM. The EC50 in the data set on HRV 14, in the data set on SARS-CoV-2, with RSV A2 and in the data set on DENV-2 was greater than 10 µM throughout. The molecule also gave a CC50 at 72 h in the data set “in vitro [2]” greater than 99 µM. The CC50 in the data set “in vitro [3]” and in “in vitro [4]” was greater than 99 µM in each case.
In turn, `C[C@]1(O)[C@H](c2ccc3c(N)ncnn23)O[C@@](CO)(N=[N+]=[N-])[C@H]1O` [Example 9, (2R,3S,4R,5S)-5-(4-aminopyrrolo[2,1-f][1,2,4]triazin-7-yl)-2-azido-2-(hydroxymethyl)-4-methyltetrahydrofuran-3,4-diol] yielded a CC50 at 24 h in the data set “in vitro [1]” greater than 99 µM. Besides, the EC50 with HRV 14, in the data set with SARS-CoV-2, in the data set with RSV A2 and with DENV-2 was greater than 10 µM throughout. This molecule returned a CC50 at 72 h in “in vitro [2]” greater than 99 µM. For the same molecule, the CC50 in “in vitro [3]” and in the data set “in vitro [4]” was greater than 99 µM throughout.
Turning to `Nc1ncnc2c1ccn2[C@@H]1O[C@](F)(CO)C[C@H]1O` [Example 11, (2R,3R,5R)-2-(4-amino-7H-pyrrolo[2,3-d]pyrimidin-7-yl)-5-fluoro-5-(hydroxymethyl)tetrahydrofuran-3-ol], in “in vitro [1]”, the CC50 at 24 h was greater than 99 µM. For the same molecule, the EC50 with HRV 14, in the data set with SARS-CoV-2, in the data set with RSV A2 and with DENV-2 was greater than 10 µM each time. In addition, the CC50 at 72 h in “in vitro [2]” lay within 10 to 99 µM. Also, the figures for the CC50 in the data set “in vitro [3]” and in the data set “in vitro [4]” were 10 to 99 µM and greater than 99 µM, respectively.
Turning to `Nc1ncnc2c1ccn2[C@@H]1O[C@@](F)(CO)C[C@H]1O` [Example 12, (2R,3R,5S)-2-(4-amino-7H-pyrrolo[2,3-d]pyrimidin-7-yl)-5-fluoro-5-(hydroxymethyl)tetrahydrofuran-3-ol], the CC50 at 24 h in the data set “in vitro [1]” is greater than 99 µM. Moreover, the EC50 in the data set on HRV 14, with SARS-CoV-2, with RSV A2 and in the data set on DENV-2 was greater than 10 µM each time. The molecule also registered a CC50 at 72 h in “in vitro [2]” greater than 99 µM. Further, the CC50 in “in vitro [3]” was 10 to 99 µM; in “in vitro [4]”, greater than 99 µM.
With `CSc1nc(N)nc2c1ncn2[C@@H]1O[C@](F)(CO)[C@@H](O)[C@H]1O` [Example 28], the CC50 at 24 h in the data set “in vitro [1]” lay within 1 to 10 µM. For the same molecule, the EC50 was greater than 10 µM in the data set with HRV 14, greater than 10 µM in the data set on SARS-CoV-2, 0.1 to 1 µM with RSV A2 and 0.1 to 1 µM in the data set on DENV-2. Further, the CC50 at 72 h in “in vitro [2]” fell in the range of 1 to 10 µM. Further, the CC50 in “in vitro [3]” and in the data set “in vitro [4]” was 1 to 10 µM throughout.
Regarding `N#Cc1cn([C@@H]2O[C@](F)(CO)[C@@H](O)[C@H]2O)c2nc[nH]c(=O)c12` [Example 37, 7-((2R,3R,4S,5S)-5-fluoro-3,4-dihydroxy-5-(hydroxymethyl)tetrahydrofuran-2-yl)-4-oxo-4,7-dihydro-3H-pyrrolo[2,3-d]pyrimidine-5-carbonitrile], the CC50 at 24 h in “in vitro [1]” is greater than 99 µM. The EC50 with HRV 14, in the data set on SARS-CoV-2, with RSV A2 and in the data set with DENV-2 was greater than 10 µM in each case. This molecule showed a CC50 at 72 h in “in vitro [2]” greater than 99 µM. The CC50 in “in vitro [3]” and in “in vitro [4]” was greater than 99 µM throughout.
`COc1ncnc2c1c(C(N)=O)cn2[C@@H]1O[C@](F)(CO)[C@@H](O)[C@H]1O` [Example 38, 7-((2R,3R,4S,5S)-5-fluoro-3,4-dihydroxy-5-(hydroxymethyl)tetrahydrofuran-2-yl)-4-methoxy-7H-pyrrolo[2,3-d]pyrimidine-5-carboxamide] showed a CC50 at 24 h in the data set “in vitro [1]” of less than 1 µM. The EC50 was greater than 10 µM in the data set with HRV 14, greater than 10 µM in the data set with SARS-CoV-2, greater than 10 µM in the data set on RSV A2 and 1 to 10 µM with DENV-2. This molecule also yielded a CC50 at 72 h in “in vitro [2]” of 1 to 10 µM. Moreover, the CC50 in the data set “in vitro [3]” and in the data set “in vitro [4]” was 10 to 99 µM in each case.
As for `COc1ncnc2c1ccn2[C@@H]1O[C@](F)(CO)C[C@H]1O` [Example 39, (2R,3R,5R)-5-fluoro-5-(hydroxymethyl)-2-(4-methoxy-7H-pyrrolo[2,3-d]pyrimidin-7-yl)tetrahydrofuran-3-ol], the CC50 at 24 h in “in vitro [1]” is greater than 99 µM. Besides, the EC50 in the data set with HRV 14, in the data set on SARS-CoV-2, in the data set on RSV A2 and in the data set with DENV-2 was greater than 10 µM throughout. In addition, the CC50 at 72 h in “in vitro [2]” is greater than 99 µM. The CC50 in “in vitro [3]” and in the data set “in vitro [4]” was greater than 99 µM in each case.
Turning to `Nc1ncnc2c1c(C(F)(F)F)cn2[C@@H]1O[C@](F)(CO)[C@@H](O)[C@H]1O` [Example 42, (2S,3S,4R,5R)-5-(4-amino-5-(trifluoromethyl)-7H-pyrrolo[2,3-d]pyrimidin-7-yl)-2-fluoro-2-(hydroxymethyl)tetrahydrofuran-3,4-diol], in the data set “in vitro [2]”, the CC50 at 72 h is less than 1 µM. Further, the EC50 in the data set with DENV-2 is less than 0.1 µM.
`CC(C)C(=O)OC[C@@]1(F)O[C@@H](n2ccc3c(N)ncnc32)[C@H](O)[C@@H]1O` [Example 46, ((2S,3S,4R,5R)-5-(4-amino-7H-pyrrolo[2,3-d]pyrimidin-7-yl)-2-fluoro-3,4-dihydroxytetrahydrofuran-2-yl)methyl isobutyrate] gave a CC50 at 24 h in the data set “in vitro [1]” of 1 to 10 µM. For the same molecule, the EC50 in the data set with HRV 14 is 0.1 to 1 µM; in the data set with SARS-CoV-2, 0.1 to 1 µM; in the data set with RSV A2 it was 0.1 to 1 µM; in the data set with DENV-2 it was less than 0.1 µM. In addition, in the data set “in vitro [2]”, the cytotoxic concentration (CC50) at 72 h was 1 to 10 µM. Further, the CC50 in “in vitro [3]” and in “in vitro [4]” was 10 to 99 µM in each case.
Turning to `Cc1ncnc2c1ccn2[C@@H]1O[C@](F)(CO)[C@@H](O)[C@H]1O` [Example 53, (2S,3S,4R,5R)-2-fluoro-2-(hydroxymethyl)-5-(4-methyl-7H-pyrrolo[2,3-d]pyrimidin-7-yl)tetrahydrofuran-3,4-diol], the EC50 was greater than 10 µM in the data set with HRV 14, greater than 10 µM in the data set on RSV A2 and 1 to 10 µM in the data set with DENV-2. In the data set “in vitro [2]”, this molecule had a CC50 at 72 h of 10 to 99 µM. The CC50 in “in vitro [3]” and in “in vitro [4]” was greater than 99 µM throughout.
Take `OC[C@@]1(F)O[C@@H](n2ccc3c(C4CC4)ncnc32)[C@H](O)[C@@H]1O` [Example 54, (2S,3S,4R,5R)-5-(4-cyclopropyl-7H-pyrrolo[2,3-d]pyrimidin-7-yl)-2-fluoro-2-(hydroxymethyl)tetrahydrofuran-3,4-diol]: the EC50 with HRV 14, in the data set on RSV A2 and in the data set with DENV-2 was greater than 10 µM throughout. In “in vitro [2]”, this molecule showed a CC50 at 72 h greater than 99 µM. Besides, the CC50 in “in vitro [3]” and in “in vitro [4]” was greater than 99 µM each time.
`Nc1ncnc2c1c(-c1nc3ccccc3s1)cn2[C@@H]1O[C@](F)(CO)[C@@H](O)C1(F)F` [Example 55, (2S,3R,5R)-5-(4-amino-5-(benzo[d]thiazol-2-yl)-7H-pyrrolo[2,3-d]pyrimidin-7-yl)-2,4,4-trifluoro-2-(hydroxymethyl)tetrahydrofuran-3-ol] showed a CC50 at 24 h in “in vitro [1]” of 1 to 10 µM. Moreover, the EC50 with SARS-CoV-2 was less than 0.1 µM.
As for `CC(C)OC(=O)[C@H](C)NP(=O)(OC[C@@]1(F)O[C@@H](n2cnc3c(=O)[nH]c(N)nc32)C(F)(F)[C@@H]1O)Oc1ccccc1` (stereo partly drawn) [Example 61, isopropyl ((((2S,3R,5R)-5-(2-amino-6-oxo-1,6-dihydro-9H-purin-9-yl)-2,4,4-trifluoro-3-hydroxytetrahydrofuran-2-yl)methoxy)(phenoxy)phosphoryl)-L-alaninate], the CC50 at 72 h in the data set “in vitro [2]” was greater than 99 µM. Also, the EC50 with DENV-2 was greater than 10 µM.
